Results reported in paper PMC3303804, “Inflammation-Associated Nitrotyrosination Affects TCR Recognition through Reduced Stability and Alteration of the Molecular Surface of the MHC Complex” (PLoS ONE, 2012).
“Also recorded” adds a separate entry of the source.

How the values were obtained:
T cell hybridoma 24H1 = system: T cell hybridoma 24H1; parameters: method as in PMID 18424715; conditions: cited from earlier work; for recognition by T cell hybridoma 24H1: H-2K^b/peptide or H-2K^b+ target cells coated with peptide
T cell hybridoma 4C8 = conditions: H-2D^b context; 4C8 is H-2D^b/NY-gp33-specific; cited from earlier work
Source text: A significant amount of the overall CD8^+ T cell response to LCMV is dominated by very few viral epitopes, comprising the H-2D^b-and H-2K^b- restricted peptide gp33–41 (hereafter referred to as gp33; […]) and the H-2K^b-restricted peptide gp34–41 (gp34; […]), [39]. Both gp33 and gp34 contain a single tyrosine residue at positions ...

H-2K^b [1] = target: T1, H-2K^b (Mus musculus, UniProt P01901); assay: MHC complex stability, Thermofluor (differential scanning fluorimetry); assay type: binding; conditions: H-2K^b/peptide complex 0.25 mg/mL, 10 mM Na^+ HEPES pH 7.3, 150 mM NaCl, SYPRO Orange, 20 to 95°C at 1°C/min; maximum of first derivative; average of three distinct melting curves
Procedure: Differential scanning fluorimetry experiments were carried out using an iQ5 real-time PCR detection system (Bio-Rad). 96-well PCR plates were filled with 23 µl of MHC solution (0.25 mg/mL) in 10 mM Na^+ HEPES buffer (pH 7.3), 150 mM NaCl per well. Finally, the fluorophore (2 µl of 125× SYPRO Orange (Sigma S5692)) was added to each well and the plate was sealed with optical sealing tape (Bio-Rad). An iQ5 Real-Time PCR Detection System, calibrated with External Well factor solution was used to monitor the changes in fluorescence intensity of the fluorophore. The temperature of the samples was changed from 20 to 95°C at a heating rate of 1°C/min and the fluorescence was recorded every 0.2°C. The melting temperature (Tm) of each melting curve was calculated as the maximum of the first derivative of the curve. The average Tm value of each protein was determined from three distinct melting curves.

H-2K^b [2] = target: T1, H-2K^b; assay: Peptide-MHC binding affinity assay, stabilization of H-2K^b on TAP-deficient RMA-S cells; conditions: 5×10^5, peptide overnight (12 hours) 26°C in serum free AIM-V, then 37°C 60 min without peptide, anti-H-2K^b AF6-88.5, flow cytometry, MFI relative to no peptide, repeated three times
H-2K^b [3] = target: T1, H-2K^b; assay: MHC complex stability, circular dichroism thermal denaturation; assay type: binding; conditions: for Tm (melting temperature): soluble H-2K^b/peptide complex, CD 218 nm, 30-75°C, 48°C/hour, 20 mM K2HPO4/KH2PO4 pH 7.5, protein 0.15 to 0.25 mg/ml, Tm at 50% denaturation
[4] = average of at least two independent measurements, value ± spread printed in Figure 4B
[5] = average of at least two measurements from two independent refolding assays

T1 sequence (P01901 whole entry, looked up): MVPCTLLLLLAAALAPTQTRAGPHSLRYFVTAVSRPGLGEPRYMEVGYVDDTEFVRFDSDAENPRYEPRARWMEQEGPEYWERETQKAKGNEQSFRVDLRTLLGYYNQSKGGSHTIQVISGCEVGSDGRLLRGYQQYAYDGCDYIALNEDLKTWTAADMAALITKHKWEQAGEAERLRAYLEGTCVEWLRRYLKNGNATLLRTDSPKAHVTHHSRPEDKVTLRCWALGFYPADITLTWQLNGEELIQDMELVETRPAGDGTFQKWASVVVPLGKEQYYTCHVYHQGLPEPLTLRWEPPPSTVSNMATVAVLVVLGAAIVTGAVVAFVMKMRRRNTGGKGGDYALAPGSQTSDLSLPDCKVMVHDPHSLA

Substance | recognition by T cell hybridoma 24H1 (T cell hybridoma 24H1) | recognition by T cell hybridoma 4C8 (T cell hybridoma 4C8) | relative level of recognition by 24H1, NY-gp34 versus NY-gp33 (T cell hybridoma 24H1; H-2K^b context) | Tm (melting temperature) (H-2K^b [1]) | binding affinity to H-2K^b (cell surface stabilization) (H-2K^b [2]) | capacity to stabilize H-2K^b complexes (H-2K^b [3]; CD thermal denaturation, compared to gp34) | decrease in Tm of H-2K^b/NY-gp34 versus H-2K^b/gp34 (H-2K^b [3]; CD, pH 7.5, lower than for H-2K^b/gp34 (nearly)) [°C] | Tm (melting temperature) (H-2K^b [3]; [4]) | Tm (melting temperature) (H-2K^b [3]; [5]) [°C]
KAVYNFATM [gp33] | did not recognize | did not recognize |  |  |  |  |  |  | 
AV-p3NY-NFATM [NY-gp34, nitrotyrosinated gp34, AV-p3NY-NFATM] | recognized; also recorded: responded to stimulation |  | to a higher level when compared to H-2K^b/NY-gp33 | 44.5±0.2 | significantly reduced binding affinity; also recorded: significantly reduced when compared to gp33 and gp34 | considerably reducing the stability; also recorded: significantly reduced when compared to gp34; also recorded: significantly reduced capacity | ~10 | 47.3 ± 0.1 | 47.3
AVYNFATM [gp34] | did not recognize |  |  | 54.4±0.1 |  |  |  | 56.7 ± 0.1 | 56.7
